# Patent publication US9260466B2, “Use of a flavanol glycoside for suppressing activation of stellate cells” (Hong Kong Baptist University, priority 2013, dated 2016)
# How the values were obtained:
# Type in all cases: cell-based, rat
# LTC-14 cells [1] = experiment: Immunofluorescent staining of α-SMA in TGF-β-stimulated LTC-14 cells; details: TGF-β 5 ng/mL, FIG. 1
# Protocol: (§1) LTC-14 cells were cultured at 37° C. under a humidified condition of 95% air and 5% CO2 in Iscove's Modified Dulbecco's Medium (IMDM) supplemented with 10% fetal bovine serum (FBS). Cells used in all the experiment were among passages 9 to 25. LTC-14 cells were seeded at a density of 1×10^5/well in a 12-well plate, and incubated with recombinant TGF-β at 5 ng/mL and Eruberin A at 0, 0.5, 1, 5, 10 and 20 μg/mL in serum-free IMDM for 24 hours. Cells were then harvested for mRNA and protein extraction or subjected to Sirius Red/Fast Green staining or immunofluorescent staining.
# For immunofluorescent staining of α-SMA, LTC-14 cells were seeded at a density of 1×10^5 onto the poly-L-lysine-coated cover slips in a 24-well plate, incubated with TGF-β at 5 ng/mL and Eruberin A at 0, 0.5, 1, 5, 10 and 20 μg/mL in serum-free IMDM for 24 hours. Cells were then fixed, blocked with 3% bovine serum albumin (BSA), probed with antibodies and mounted with fluorescence mounting medium containing 4′,6-diamidino-2-phenylindole (DAPI). Images were captured using the Nikon microscope and analyzed by the SPOT advanced software.
# NF-κB = experiment: Western blotting of nuclear translocation of NF-κB in LTC-14 cells; details: compared to the TGF-β-treated control, FIG. 5
# Protocol: as §1
# (§2) Cytoplasmic and nuclear protein fractions of the LTC-14 cells were extracted using specific lysis buffers containing protease inhibitors. Cell lysates were loaded and separated by SDS-polyacrylamide gel electrophoresis. After wet electroblotting, proteins were transferred onto PVDF membranes (Bio-Rad), blocked with 5% non-fat milk, probed with antibodies and visualized by utilization of an ECL kit (GE Healthcare).
# LTC-14 cells [2] = experiment: Western blotting of α-SMA and FN1 proteins in TGF-β-stimulated LTC-14 cells; details: TGF-β 5 ng/mL, Eruberin A 0.5-20 μg/mL, 24 hours, serum-free medium, FIG. 2
# Protocol: as §1, §2
# LTC-14 cells [3] = experiment: Real-time quantitative PCR of fibrotic mediator mRNA in TGF-β-stimulated LTC-14 cells; details: TGF-β 5 ng/mL, 24 hours
# Protocol: as §1
# mRNA samples from LTC-14 cells were extracted using Trizol reagent and subjected to a reverse transcription for cDNA synthesis. The synthesized cDNA was applied to amplifications with rat-specific primers for Tgf-β, Acta2, Col I-α1 and Fn1 in the ABI ViiA 7 real-time PCR system (Applied Biosystems) using 2×SYBR Green PCR Master Mix (Applied Biosystems). The Ct value of gene of interest was normalized to the endogenous reference Gapdh and presented as 2^−ΔΔCt using the comparative Ct method.
# LTC-14 cells [4] = experiment: MTT cell proliferation assay; details: Eruberin A in the range of 0 to 20 μg/mL; results not shown
# LTC-14 cells [5] = experiment: Sirius Red/Fast Green collagen staining of LTC-14 cells; details: TGF-β 5 ng/mL, Eruberin A 10 μg/mL, p<0.05 vs TGF-β alone, FIG. 3
# Protocol: as §1
# Amounts of collagen and non-collagenous proteins in LTC-14 cells were measured using the Sirius Red/Fast Green collagen staining kit (Chondrex Inc.) according to the manufacturer's instruction.
# [6] = Eruberin A 0.5-20 μg/mL, FIG. 4
compound,measurement,setting,value
COc1ccc(C2C[C@@H]3OC4C(Oc5c(C)c(O)c(C)c(c53)O2)OC(CO)C(O)C4O)cc1 (stereo partly drawn) [Eruberin A],TGF-β-stimulated α-SMA expression (immunofluorescence),LTC-14 cells [1]; 24 hours,significantly attenuated
same,immunoreactivities of α-SMA,LTC-14 cells [1]; Eruberin A at 10 μg/mL,sufficiently suppress
same,nuclear translocation of NF-κB,NF-κB,significantly decreased
same,TGF-β-provoked elevation of FN1 protein,LTC-14 cells [2],effectively attenuated
same,TGF-β-provoked elevation of α-SMA protein,LTC-14 cells [2],effectively attenuated
same,IC50,"LTC-14 cells [3]; Rattus norvegicus, read-out: IC50 based on suppressive effects on the mRNA expression of α-SMA",~10 µg/mL
same,TGF-β-elevated mRNA expression level of Acta2,LTC-14 cells [3]; [6],significantly and dose-dependently suppressed
same,TGF-β-elevated mRNA expression level of Col I-α1,LTC-14 cells [3]; [6],significantly and dose-dependently suppressed
same,TGF-β-elevated mRNA expression level of Fn1,LTC-14 cells [3]; [6],significantly and dose-dependently suppressed
same,TGF-β-elevated mRNA expression level of Tgf-,LTC-14 cells [3]; [6],significantly and dose-dependently suppressed
same,cytotoxicity (MTT cell proliferation assay),LTC-14 cells [4],no notable cytotoxicity
same,production of collagen (ratio of Sirius Red-stained collagenous to Fast Green-stained non-collagenous proteins),LTC-14 cells [5],notably suppressed
